Reference: patent US20220015404A1, “TRAUMATIC ACID COMPOSITIONS AND METHODS FOR TASTE MODULATION” (INTERNATIONAL FLAVORS & FRAGRANCES INC., priority 2018, published 2022)

How the values were obtained:
Type in all cases: in vivo
[1] = Descriptive sensory evaluation in sugar water (4% sucrose in drinking water); conditions: 5 ppm in sugar water (4% sucrose in drinking water), vs base solution
Method: Sugar water (4% sucrose in drinking water) was prepared and used as a base solution. Different amounts of traumatic acid were added to the base solution and descriptive sensory evaluations were performed (Table 1).
Sugar water (4% sucrose in drinking water) was prepared and used as a base solution. Traumatic acid and 3-dodecenedioic acid were added to the base solution and descriptive sensory evaluations were performed (Table 2).

[2] = Descriptive sensory evaluation in sweetened milk (2% fat milk with 2% sucrose); conditions: 2 ppm of each acid in sweetened milk (2% fat milk with 2% sucrose), vs base
Method: Sweetened milk (2% fat milk with 2% sucrose) was prepared and used as a base solution (“base”).

[3] = Descriptive sensory evaluation of traumatic acid in different applications
Method: Descriptive sensory evaluations were carried out using different amounts of traumatic acid in different applications.

[4] = Comparison of sweetness and mouthfeel enhancement and off-flavor masking with analogs; conditions: 5 ppm, compared with mesaconic acid, glutaconic acid, trans-β-Hydromuconic acid, e-oct-4ene-1, 8-dioic acid

Row | SMILES | Taste Evaluation [1] | Taste Evaluation [2] | Taste Evaluation ([3]; 40 ppm in 3% Sugar + 0.05% Citric Acid Water Solution) | Taste Evaluation ([3]; 40 ppm in Water, vs same application without traumatic acid) | sweetness and mouthfeel enhancement as well as off-flavor masking [4]
1 | O=C(O)CC=CCCCCCCCC(=O)O [3-Dodecenedioic acid, 3-dodecenedioic acid] | enhanced the sweetness and mouthfeel of sugar water |  |  |  | 
2 | O=C(O)CCCCCCCCC(=O)O [Sebacic Acid, sebacic acid] |  | increased sweetness and mouthfeel of sweetened milk |  |  | 
3 | O=C(O)/C=C/CCCCCCCCC(=O)O [Traumatic acid, traumatic acid] | enhanced the sweetness and mouthfeel of sugar water | increased sweetness and mouthfeel of sweetened milk | Fatty and oily | Fatty and oily | exhibited the strongest and the longest-lasting effect
